Read-outs that look alike come from different tables or passages of the source.
Target: T1, APOL1 G1 (Homo sapiens, UniProt O14791, I384M/S342G)
T1 sequence (O14791 28-398 S342G/I384M): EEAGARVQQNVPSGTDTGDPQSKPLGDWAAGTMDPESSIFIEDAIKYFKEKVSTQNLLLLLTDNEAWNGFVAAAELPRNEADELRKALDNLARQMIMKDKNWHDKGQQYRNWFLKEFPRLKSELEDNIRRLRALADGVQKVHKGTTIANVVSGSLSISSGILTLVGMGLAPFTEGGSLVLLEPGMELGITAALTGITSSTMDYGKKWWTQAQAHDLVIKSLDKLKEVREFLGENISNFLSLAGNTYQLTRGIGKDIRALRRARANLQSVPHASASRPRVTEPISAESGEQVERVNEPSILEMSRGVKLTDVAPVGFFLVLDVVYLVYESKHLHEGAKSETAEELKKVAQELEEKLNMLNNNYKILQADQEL
Assay: MultiTox-Fluor Multiplex Cytotoxicity Assay, tet-inducible APOL1 G1 T-REx-HEK293 cells
Type: cell-based
Set-up: expressed in transfected cells; host or cells: T-REx HEK293, clone G1 DC3.25 (pAAVS1-Puro-APOL1 G1)
Conditions: for IC90: HEK293, Multi-Tox Assay, APOL1 variant (G0/G1/G2) of the HEK293 cells not given, read-out: Multi-Tox Assay IC90; for Emax: read-out: Multi-Tox Assay Max Activity (%)
Experimental: The MultiTox-Fluor Multiplex Cytotoxicity Assay is a single-reagent-addition, homogeneous, fluorescence assay that measures the number of live and dead cells simultaneously in culture wells. The assay measures cell viability and cytotoxicity by detecting two distinct protease activities. The live-cell protease activity is restricted to intact viable cells and is measured using a fluorogenic, cell-permeant peptide glycyl-phenylalanylamino fluorocoumarin (GF-AFC) substrate. The substrate enters intact cells, where it is cleaved to generate a fluorescent signal proportional to the number of living cells. […] A second, cell-impermeant, fluorogenic peptide substrate (bis-AAF-R110 Substrate) is used to measure dead-cell protease that has been released from cells that have lost membrane integrity. A ratio of dead to live cells is used to normalize data.
Briefly, the tet-inducible transgenic APOL1 T-REx-HEK293 cell lines were incubated with 50 ng/mL tet to induce APOL1 in the presence of 3-(2-(4-fluorophenyl)-1H-indol-3-yl)-N-((3S,4R)-4-hydroxy-2-oxopyrrolidin-3-yl)propenamide at […], 0.0045, 0.0015, 0.0005 µM in duplicate for 24 hours in a humidified 37°C incubator. The MultiTox reagent was added to each well and placed back in the incubator for an additional 30 minutes. The plate was read on the EnVision plate reader. A ratio of dead to live cells was used to normalize, and data was imported, analyzed and fit using Genedata Screener (Basel, Switzerland) software. Data was normalized using percent of control, no tet (100% viability), and 50 ng/mL tet treated (0% viability),and fit using Smart Fit. The reagents, methods, and complete protocol for the MultiTox assay are described below. Table 42. Reagents Used in the Multi-Tox Assay
Human embryonic kidney (HEK293) cell lines containing a tet-inducible expression system (T-REx™; Invitrogen, Carlsbad, CA) and Adeno-associated virus site 1 pAA VS1-Puro-APOL1 G0 or pAAVS1-Puro-APOL1 G1 or pAAVS1-Puro-APOL1 G2 Clones G0 DC2.13, G1 DC3.25, and G2 DC4.44 were grown in a T-225 flask at ~90% confluency in cell growth media (DMEM, 10% Tet-free FBS, 2 mM L-glutamine, 100 Units/mL penicillin-streptomycin, 5 µg/mL blasticidin S HCl, 1 µg/mL puromycin dihydrochloride). Cells were washed with DPBS and then trypsinized to dissociate from the flask. Media was used to quench the trypsin, cells were then pelleted at 200g and resuspended in fresh cell assay media (DMEM, 2% Tet-free FBS, 2 mM L-glutamine, 100 Units/mL penicillin-streptomycin). Cells were counted and diluted to 1.17 x 10^6 cells/mL. 20 µL of cells (23,400/well) were dispensed to every well of a 384-well Poly-D-Lysine coated plate using the Multidrop dispenser. The plates were then incubated at room temperature for one hour.
Tetracycline is needed to induce APOL1 expression. 1 mg/mL tet stock in water was diluted to 250 ng/mL (5X) in cell assay media. 60 µL of cell assay media (no tet control) was dispensed in columns 1 and 24, and 60 µL of 5X tet was dispensed in 384-PP-round bottom plate in columns 2 to 23 with the Multidrop dispenser.
Assay ready plates from the Global Compound Archive were ordered using template 384_APOL1Cell_DR10n2_50uM_v3. Compounds were dispensed at 200 nL in DMSO. The final top concentration was 10 µM with a 10 point 3-fold dilution in duplicate in the MultiTox assay.
20 µL were transferred from the 5X tet plate to the ARP and mixed, then 5 µL of 5X tet and the compounds were transferred to the cell plate and mixed using the Bravo. The cell plate was placed in the humidified 37°C 5% CO2 incubator for 24 hours.
The MultiTox-Fluor Multiplex Cytotoxicity Assay was performed in accordance with the manufacturer's protocol. […]

[1] = Multi-Tox Assay, APOL1 variant not given

Compound | IC90 [nM] | Emax [1] [%] | Multi-Tox Assay Max Activity (%) [1] [%] | Emax [%]
CC1CC2(CC(c3cccnc3)N1)OCCc1cc(Cl)sc12 (racemic) [Compound 20, 2-chloro-2'-methyl-6'-(3-pyridyl)spiro[4,5-dihydrothieno[2,3-c]pyran-7, 4'-piperidine]] | < 50 | 99.4 | – | –
C[C@H]1C[C@@]2(C[C@@H](c3ccn(C)n3)N1)OCCc1cc(Cl)sc12 (racemic) [Compound 118] | 50 to 500 | – | 99.3 | –
C[C@H]1C[C@@]2(C[C@@H](c3cnn(CCO)c3)N1)OCCc1cc(Cl)sc12 (racemic) [Compound 56] | < 50 | – | 99.8 | –
CNc1ncc([C@@H]2C[C@]3(C[C@H](C)N2)OCCc2cc(Cl)sc23)cn1 (racemic) [Compound 60] | < 50 | – | 99.7 | –
Cc1ccnn1CCn1cc([C@@H]2C[C@]3(C[C@H](C)N2)OCC(F)(F)c2cc(Cl)sc23)nn1 [Compound 315] | 50 to 500 | – | 98.0 | –
C[C@H]1C[C@@]2(C[C@@H](c3cnn(CC(C)(CO)CO)c3)N1)OCCc1cc(Cl)sc12 (racemic) [Compound 103] | < 50 | – | 99.6 | –
C[C@H]1CC2(C[C@@H](c3cn(C)nn3)N1)OCCc1sc(Cl)cc12 (single isomer, unassigned) [Compound 173] | < 50 | 99.5 | – | –
Cn1cc(C2CC3(CC(C4CCC4)N2)OCCc2cc(C(F)(F)F)sc23)nn1 (stereo not shown) [Compound 192] | 50 to 500 | 99 | – | –
Cc1cc([C@@H]2C[C@]3(C[C@H](C)N2)OCCc2cc(Cl)sc23)nn1C (racemic) [Compound 98] | < 50 | – | – | –
Clc1cc2c(s1)C1(C[C@@H](C3CC3)N[C@@H](C3CC3)C1)OCC2 (single isomer, unassigned) [Compound 206] | 50 to 500 | 99.3 | – | –
C[C@H]1C[C@@]2(C[C@@H](c3cn(Cc4cocn4)nn3)N1)OCC(F)(F)c1cc(Cl)sc12 [Compound 331] | 50 to 500 | – | 98.0 | –
C[C@H]1C[C@@]2(C[C@@H](c3cn(CC4(CO)CCOCC4)nn3)N1)OC[C@@H](O)c1cc(Cl)sc12 [Compound 240] | > 500 | – | 95.0 | –
Cc1cc(C)nc(CCn2cc([C@@H]3C[C@]4(C[C@H](C)N3)OCC(F)(F)c3cc(Cl)sc34)nn2)c1 [Compound 351] | 50 to 500 | – | 98.0 | –
COc1ccnc([C@@H]2C[C@]3(C[C@H](C)N2)OCCc2cc(Cl)sc23)n1 (racemic) [Compound 145] | > 500 | – | 97.7 | –
C[C@H]1C[C@@]2(C[C@@H](c3cnn(C4CCS(=O)(=O)C4)c3)N1)OCCc1cc(Cl)sc12 (stereo partly shown) [Compound 97] | < 50 | – | – | 99
C[C@H]1C[C@@]2(C[C@@H](c3cnc4n3CCOC4)N1)OCCc1cc(Cl)sc12 (racemic) [Compound 149] | > 500 | – | 95.7 | –
Cc1c(Cn2cc([C@@H]3C[C@]4(C[C@H](C)N3)OC[C@@H](O)c3cc(Cl)sc34)nn2)cnn1C [Compound 285] | 50 to 500 | – | 98.0 | –
Cc1ccccc1C(O)Cn1cc([C@@H]2C[C@]3(C[C@H](C)N2)OCC(F)(F)c2cc(Cl)sc23)nn1 (stereo partly shown) [Compound 304] | 50 to 500 | – | – | –

Compound | IC90 [nM] | Emax [1] [%] | Multi-Tox Assay Max Activity (%) [1] [%] | Emax [%]
COCc1cc([C@@H]2C[C@]3(C[C@H](C)N2)OCCc2cc(Cl)sc23)no1 (racemic) [Compound 106] | < 50 | – | 99.7 | –
Cc1c(Cn2cc([C@@H]3C[C@]4(C[C@H](C)N3)OCC(F)(F)c3cc(Cl)sc34)nn2)cnn1C [Compound 326] | 50 to 500 | – | 97.0 | –
Cc1cc([C@@H]2C[C@]3(C[C@H](C)N2)OCCc2cc(Cl)sc23)ccc1O (racemic) [Compound 108] | 50 to 500 | – | – | –
COCC1CC2(CC(c3cn(C)nn3)N1)OCCc1cc(C(F)(F)F)sc12 (stereo not shown) [Compound 193] | 50 to 500 | 99 | – | –
C[C@H]1C[C@@]2(C[C@@H](c3ccc(O)cn3)N1)OCCc1cc(Cl)sc12 (racemic) [Compound 59] | < 50 | – | 99.3 | –
C[C@H]1C[C@@]2(C[C@@H](c3cn(CCC#N)nn3)N1)OC[C@@H](O)c1cc(Cl)sc12 [Compound 286] | 50 to 500 | – | 98.0 | –
Cc1noc(C)c1Cn1cc([C@@H]2C[C@]3(C[C@H](C)N2)OC[C@@H](O)c2cc(Cl)sc23)nn1 [Compound 237] | 50 to 500 | – | – | –
Cc1nnc(Cn2cc([C@@H]3C[C@]4(C[C@H](C)N3)OCC(F)(F)c3cc(Cl)sc34)nn2)[nH]1 [Compound 339] | 50 to 500 | – | 97.0 | –
C[C@H]1C[C@@]2(C[C@@H](c3cnn4ccccc34)N1)OCCc1cc(Cl)sc12 (racemic) [Compound 117] | 50 to 500 | – | – | –
C[C@H]1C[C@@]2(C[C@@H](c3ccccn3)N1)OCCc1cc(Cl)sc12 (racemic) [Compound 83] | < 50 | 99 | – | –
C[C@H]1C[C@@]2(C[C@@H](c3cnc(N)nc3)N1)OCCc1cc(Cl)sc12 (racemic) [Compound 57] | < 50 | – | 99.7 | –
C[C@H]1C[C@@]2(C[C@@H](c3cn(Cc4nc5ncccc5[nH]4)nn3)N1)OCC(F)(F)c1cc(Cl)sc12 [Compound 346] | 50 to 500 | – | – | –
CC1CC2(CC(c3cc(F)cc(C#N)c3)N1)OCCc1cc(Cl)sc12 (stereo not shown) [Compound 33] | < 50 | – | 98.7 | –
C[C@@H]1CC2(C[C@H](C)N1)OCCc1cc(Br)sc12 (single isomer, unassigned) [Compound 197] | 50 to 500 | 99 | – | –
CCn1cc(Cn2cc([C@@H]3C[C@]4(C[C@H](C)N3)OCC(F)(F)c3cc(Cl)sc34)nn2)cn1 [Compound 330] | 50 to 500 | – | – | –
C[C@H]1C[C@@]2(C[C@@H](c3cn(CC(=O)N4CCCCC4)nn3)N1)OC[C@@H](O)c1cc(Cl)sc12 [Compound 239] | 50 to 500 | – | 97.0 | –
C[C@H]1C[C@@]2(C[C@@H](c3cnccc3O)N1)OCCc1cc(Cl)sc12 (racemic) [Compound 160] | > 500 | – | 94.3 | –
CC(C)C(=O)NCCn1cc([C@@H]2C[C@]3(C[C@H](C)N2)OCC(F)(F)c2cc(Cl)sc23)nn1 [Compound 345] | 50 to 500 | – | – | –
